This is an account of results in ChEMBL document CHEMBL3507680, “University of Dundee, Gates Library screen for HepG2 cell viability”.

Each structure is given as a SMILES string.

The nature of the series: Human HepG2 cell viability assay in 384 well format. The series is classed as toxicity, cell-based. Further details: dose 125 nL, time 70.5 hour; cytotoxicity at 70.5 h: concentration not given beside the values. As to conditions: HepG2 cells, read-out: Inhibition.
Consider `Cc1cccc(CN2CCCC2c2cncc(Nc3nncs3)n2)c1` (stereo not drawn), for which the cytotoxicity at 70.5 h amounted to 2.33%.

`CNc1cc(C2CCCN2C(=O)CCc2ccccc2F)ccn1` (stereo not drawn): the cytotoxicity at 70.5 h was -2.87%.

Regarding `Cc1nc(C)c(C(=O)N2CCCC2(C)C(=O)NC2CCCC2)o1` (stereo not drawn), the cytotoxicity at 70.5 h is 8.88%.

On to `O=C1CN(Cc2ccc3ccccc3n2)CCN1C1CCCC1`, for which the cytotoxicity at 70.5 h was -1.73%.

Turning to `CCC(=O)N1CCC(c2ncncc2C)CC1`, the cytotoxicity at 70.5 h was -1.94%.

Take `OCC(CO)N1CCC(c2nccnc2Nc2cnccn2)CC1`: the cytotoxicity at 70.5 h is -2.76%.

Consider `CC(C)C(C(=O)O)c1cccc(Cl)c1` (stereo not drawn), for which the cytotoxicity at 70.5 h is -7.66%.

Regarding `CNC(=O)Cc1ccc(NC(=O)NCc2ncc(C)s2)cc1`, the cytotoxicity at 70.5 h is 8.85%.

With `COc1cc(Br)c(S(=O)(=O)NC(=O)C(C)OC)cc1OC` (stereo not drawn), the cytotoxicity at 70.5 h was -6.11%.

As to `CCn1cnnc1CCNC(=O)c1ccc(F)c(Br)c1`, the cytotoxicity at 70.5 h was -12.1%.

Take `CCC(=O)c1cccc(S(=O)(=O)NC(C)C#N)c1` (stereo not drawn): the cytotoxicity at 70.5 h was -11%.

For the compound `CN(C)S(=O)(=O)N1CCC(C(O)c2ccc(Cl)cc2)CC1` (stereo not drawn), the cytotoxicity at 70.5 h is -10.4%.

Turning to `CCN(Cc1cccc2c1OCCO2)C(=O)NC(C)(C)C`, the cytotoxicity at 70.5 h is -2.31%.

Regarding `Cc1cc(NC(=O)N2CCC[C@@H]2CO)nn1-c1ccccc1Cl`, the cytotoxicity at 70.5 h was -7.9%.

For `CC(C)Cc1cc(C(=O)N2CCC(N3CCCC3)CC2)cc(O)n1`, the cytotoxicity at 70.5 h was -12.3%.

For `Cc1cc(NC(=O)N2CCC[C@@H]2CO)nn1-c1cccc(Cl)c1`, the cytotoxicity at 70.5 h was -8.23%.

With `CC(OCC1CC1)C(=O)Nc1ccn(Cc2ccccc2)n1` (stereo not drawn), the cytotoxicity at 70.5 h was -7.82%.

For `O=C(NCCCn1ccnc1)C1COCC(=O)N1Cc1ccccc1` (stereo not drawn), the cytotoxicity at 70.5 h is -16%.

Take `COCC1CCN(C(=O)c2cc(O)nc(CC(C)C)c2)CC1`: the cytotoxicity at 70.5 h was -7.27%.

Take `CC(=O)N(C)C(c1cccnc1)c1ccc(F)c(F)c1` (stereo not drawn): the cytotoxicity at 70.5 h came out at 23.1%.

`Cc1ccnc(NC(=O)c2cc(C)oc2C)c1`: the cytotoxicity at 70.5 h amounted to 4.63%.

For the compound `Cc1ccnc(NC(=O)c2ccc(Cl)o2)c1`, the cytotoxicity at 70.5 h was -9.97%.

As for `CCN(CC(=O)Nc1cc(C(C)(C)C)no1)Cc1ccc(Cl)s1`, the cytotoxicity at 70.5 h was -3.4%.

Take `O=S(=O)(CCCn1cncn1)Cc1ccc(F)cc1Cl`: the cytotoxicity at 70.5 h is -8.31%.

As to `Cc1cnc(C(=O)NCC2Cc3ccccc3O2)cn1` (stereo not drawn), the cytotoxicity at 70.5 h was determined as 1.1%.

Consider `CS(=O)(=O)N1CCC(C(=O)Nc2nnc(C(F)(F)F)[nH]2)CC1`, for which the cytotoxicity at 70.5 h was -6.85%.

For `CC(C(=O)N1CCOCC1)S(=O)(=O)Cc1noc(C(C)(C)C)n1` (stereo not drawn), the cytotoxicity at 70.5 h came out at 7.07%.

Take `CC(NC(=O)c1ccoc1)C(=O)N(C)Cc1cccc(C(F)(F)F)c1` (stereo not drawn): the cytotoxicity at 70.5 h is 9.42%.

For the compound `CC(c1ccco1)N(C(=O)COc1ccc(C#N)cc1)C1CC1` (stereo not drawn), the cytotoxicity at 70.5 h was -6.31%.

On to `CC(c1ccco1)N(C(=O)c1cccc(C#N)c1)C1CC1` (stereo not drawn), for which the cytotoxicity at 70.5 h was -5.03%.

Take `CCOc1nnc(CN2CCC(c3nc4ccccc4[nH]3)CC2)s1`: the cytotoxicity at 70.5 h came to 1.06%.

With `CC(c1nc(-c2ccccc2)no1)N1CC(n2cccn2)C1` (stereo not drawn), the cytotoxicity at 70.5 h is -4.14%.

With `CN(C)S(=O)(=O)c1ccc(F)c(NC(=O)COCC2CC2)c1`, the cytotoxicity at 70.5 h is -10.8%.

As for `CC(C)(C)SCC(=O)Nc1cc(-n2nnnc2C2CC2)ccc1F`, the cytotoxicity at 70.5 h was found to be 10.5%.

Regarding `CCOCC(=O)Nc1cc(-n2nnnc2C2CC2)ccc1F`, the cytotoxicity at 70.5 h was determined as 0.6%.

For `Cc1cnn(CC(=O)Nc2cc(-n3nnnc3C3CC3)ccc2F)c1`, the cytotoxicity at 70.5 h is -7.79%.

For the compound `CCN(CC)S(=O)(=O)NC(=O)c1cc(C)n(-c2ccccc2)n1`, the cytotoxicity at 70.5 h was 10.6%.

With `CCCS(=O)(=O)NC(=O)c1cc(C)n(-c2ccccc2)n1`, the cytotoxicity at 70.5 h is 7.41%.

As to `CCOc1ccccc1CCNC(=O)NCC(O)c1cccs1` (stereo not drawn), the cytotoxicity at 70.5 h is -4.36%.

As to `CCC(CC)c1cc(C(=O)N2CCN(CC(N)=O)CC2)on1`, the cytotoxicity at 70.5 h is -6.02%.

As to `CNS(=O)(=O)c1cc(C(=O)N2CCCCCC2CC(C)C)co1` (stereo not drawn), the cytotoxicity at 70.5 h is -3.95%.

For the compound `CN1CCOC(C(=O)Nc2nnc(Cc3ccc(F)cc3)[nH]2)C1` (stereo not drawn), the cytotoxicity at 70.5 h is -7.94%.

In the case of `CCOC(C)C(=O)Nc1cc(S(=O)(=O)NC2CC2)ccc1F` (stereo not drawn), the cytotoxicity at 70.5 h stood at 6.35%.

As to `Cc1nc(CN(C)c2nccc(N(C)C)n2)cs1`, the cytotoxicity at 70.5 h was -0.0733%.

For the compound `Cc1ccn(Cc2nc(CC(C)C)no2)c(=O)c1`, the cytotoxicity at 70.5 h was -6.72%.

Regarding `Cc1nc(CSCCC(=O)Nc2cccc(N3CCNC3=O)c2)cs1`, the cytotoxicity at 70.5 h was -0.129%.

As to `O=C(NCc1ccnc(OCC(F)(F)F)c1)NCC1CCOC1` (stereo not drawn), the cytotoxicity at 70.5 h was -15.8%.

`Cc1cc(-n2c(C)cn(CN(C)Cc3ccccc3)c2=O)no1`: the cytotoxicity at 70.5 h is -5.85%.

With `COc1ccc(CN(C)Cn2cc(C)n(-c3cc(C)on3)c2=O)cc1`, the cytotoxicity at 70.5 h was -12.5%.

As for `Cc1cc(CN(CCO)Cc2cc(Br)ccc2F)no1`, the cytotoxicity at 70.5 h was -17.4%.

As for `N#Cc1c(CN2CCCC2Cn2cncn2)cn2ccccc12` (stereo not drawn), the cytotoxicity at 70.5 h was -12.3%.

`COCC(=O)NC(c1ccccc1)c1ccc2c(c1)CCCO2` (stereo not drawn): the cytotoxicity at 70.5 h is -16.4%.

As to `O=C(Cn1cnnn1)NC(c1ccccc1)c1ccc2c(c1)CCCO2` (stereo not drawn), the cytotoxicity at 70.5 h was determined as 24.4%.

As to `Cc1ccc(C2CSCCN2C(=O)c2ccncc2)cc1` (stereo not drawn), the cytotoxicity at 70.5 h worked out at 0.0663%.

Regarding `CCOCCOC(C)C(=O)Nc1ccc2ccn(CC(=O)NC)c2c1` (stereo not drawn), the cytotoxicity at 70.5 h was -13.2%.

Take `O=C(Nc1cccnc1)NC1(c2cccc(F)c2)CC1`: the cytotoxicity at 70.5 h was -14.7%.

As to `CCc1ccccc1CNC(=O)NCc1cnn(C)c1`, the cytotoxicity at 70.5 h is -11.8%.

For the compound `O=C(NCCO)NC(c1ccccc1)c1ccc2c(c1)CCCO2` (stereo not drawn), the cytotoxicity at 70.5 h was -12.9%.

As to `CC1CS(=O)(=O)CCN1CCCc1ccc(Cl)cc1` (stereo not drawn), the cytotoxicity at 70.5 h is -6.15%.

Consider `O=C(CCCc1ccccn1)Nc1cccc(N2CCCNC2=O)c1`, for which the cytotoxicity at 70.5 h is -0.166%.

`COc1ccccc1C1(CNC(=O)NCc2noc(C)n2)CC1`: the cytotoxicity at 70.5 h turned out to be 26.4%.

In the case of `CS(=O)(=O)c1ccc(NC(=O)NC2(c3cccc(F)c3)CC2)cc1`, the cytotoxicity at 70.5 h is -7.54%.

With `Cc1ccc(C2CN(CCS(C)(=O)=O)CCO2)c(C)c1` (stereo not drawn), the cytotoxicity at 70.5 h was -12.5%.

For `O=S(=O)(c1cncc(F)c1)N1CCC2(CCOC2)C1` (stereo not drawn), the cytotoxicity at 70.5 h was -14.3%.

On to `O=S(=O)(c1cncc(F)c1)N1CCC2(CCCCC2)C1`, for which the cytotoxicity at 70.5 h is -13%.

In the case of `Cc1nc(CNC(=O)NCC2(C)CCCc3ccccc32)no1` (stereo not drawn), the cytotoxicity at 70.5 h was 29.3%.

As to `CC(=O)Nc1ccc(SCC(O)COCc2ccc3c(c2)OCO3)cc1` (stereo not drawn), the cytotoxicity at 70.5 h is -4.91%.

Turning to `CC1CS(=O)(=O)CCN1CCCc1ccc(C(F)(F)F)cc1` (stereo not drawn), the cytotoxicity at 70.5 h is -10.6%.

`Clc1ccc(C(CNCc2cccnc2)n2cccn2)cc1` (stereo not drawn): the cytotoxicity at 70.5 h was found to be 24.3%.

`CCn1cc(CNCC(c2ccc(Cl)cc2)n2cccn2)cn1` (stereo not drawn): the cytotoxicity at 70.5 h was -14.8%.

In the case of `Cc1cc(-n2c(C)cn(CN(C)CC3CC3)c2=O)no1`, the cytotoxicity at 70.5 h was -1.13%.

Consider `COCCCN(Cc1ccncc1)c1ncc(C#N)cc1Cl`, for which the cytotoxicity at 70.5 h is -0.375%.

In the case of `Cc1ccc(C2CSCCN2C(=O)c2ccccn2)cc1` (stereo not drawn), the cytotoxicity at 70.5 h is -13.2%.

For the compound `CCc1ccccc1CNC(=O)CCc1cnn(C)c1`, the cytotoxicity at 70.5 h was -8.72%.

Turning to `CC(C)N1C(=O)CN(CCCO)CC1(C)C`, the cytotoxicity at 70.5 h is -9.87%.

For the compound `COCCC1(C(=O)NCCc2nncn2C2CC2)CCC1`, the cytotoxicity at 70.5 h is -13.5%.

Regarding `CC(=O)N1CCC(Oc2ccc(C#N)cc2)CC1`, the cytotoxicity at 70.5 h stood at 9.28%.

In the case of `Cc1noc(CCNC(=O)c2ccc(Br)c(S(=O)(=O)N(C)C)c2)n1`, the cytotoxicity at 70.5 h was -4.79%.

As to `Cc1occc1C(=O)NCC(=O)N1CCC(COc2ccccc2)CC1`, the cytotoxicity at 70.5 h is -2.93%.

With `CS(=O)(=O)N1CCC(C(=O)N2CCOc3ccccc32)CC1`, the cytotoxicity at 70.5 h is -5.71%.

In the case of `CC1CCN(C(=O)C2CCN(S(C)(=O)=O)CC2)c2ccccc21` (stereo not drawn), the cytotoxicity at 70.5 h is -7.57%.

For `Cc1nn(C)c(Cl)c1S(=O)(=O)N(CC(N)=O)CC(C)C`, the cytotoxicity at 70.5 h is -16.6%.

Turning to `Cc1nn(C)c(C)c1S(=O)(=O)N(CC(N)=O)CC(C)C`, the cytotoxicity at 70.5 h is -8.24%.

With `NC(=O)C(Cc1ccccc1)NS(=O)(=O)Cc1ccccc1F` (stereo not drawn), the cytotoxicity at 70.5 h was -15%.

For the compound `Cc1ccc(NC(=O)N(C)C)c(C(=O)OCC(=O)NC2CCCC2)c1`, the cytotoxicity at 70.5 h was -0.892%.

On to `Cc1ccc(NC(=O)N(C)C)c(C(=O)OCC(=O)NC(C)C(C)C)c1` (stereo not drawn), for which the cytotoxicity at 70.5 h was 26.9%.

Regarding `Cc1nc(-c2ccc(S(=O)(=O)N3CCSCC3)cc2)co1`, the cytotoxicity at 70.5 h was -5.93%.

Take `CN(Cc1c(F)cccc1Cl)C(=O)c1cnn(CCN2CCOCC2)c1`: the cytotoxicity at 70.5 h was -12.6%.

For the compound `COCc1nc(C(=O)NS(=O)(=O)c2ccc(F)c(F)c2)cs1`, the cytotoxicity at 70.5 h was -6.1%.

On to `Cc1ccc(CN2CCOCC2)cc1NCc1ccsc1`, for which the cytotoxicity at 70.5 h is -13.9%.

For the compound `Cc1nc(-c2ccc(S(=O)(=O)N3CCC=C(F)C3)cc2)co1`, the cytotoxicity at 70.5 h is -9.72%.

Take `COC(=O)CN(C(=O)c1ccc(Cl)cn1)c1cccc(F)c1`: the cytotoxicity at 70.5 h is -0.717%.

`CC(C)(C)OC(=O)NCCC(=O)N(CCC#N)Cc1ccco1`: the cytotoxicity at 70.5 h is -0.853%.

For the compound `COC(=O)CN(C(=O)c1ccc(Cl)o1)c1cccc(F)c1`, the cytotoxicity at 70.5 h was -11.3%.

Take `CCc1noc(CN(C)Cc2cc(Br)ccc2OC)n1`: the cytotoxicity at 70.5 h was -5.46%.

For the compound `COCCC(=O)N(CCC#N)c1ccc2c(c1)OCCO2`, the cytotoxicity at 70.5 h was -0.557%.

As to `NC(=O)c1cnn2c1NCC(CNCC1(c3ccccc3)CCC1)C2` (stereo not drawn), the cytotoxicity at 70.5 h came out at 10.4%.

Consider `N#Cc1ccc(CN2CCOCC2)cc1`, for which the cytotoxicity at 70.5 h worked out at 2.27%.

On to `CC(C)C(C)N(C)C(=O)COc1ccccc1C#N` (stereo not drawn), for which the cytotoxicity at 70.5 h is 1.38%.

In the case of `CC(Oc1cc(Cl)cc(Cl)c1)C(=O)NCCC(=O)N(C)C` (stereo not drawn), the cytotoxicity at 70.5 h was -6.44%.

For the compound `CC(CNC(=O)OC(C)(C)C)N(C)C(=O)COc1ccccc1C#N` (stereo not drawn), the cytotoxicity at 70.5 h is -12.1%.

On to `Cc1ncc2c(n1)CN(c1ncnc3[nH]ccc13)CC2`, for which the cytotoxicity at 70.5 h was determined as 1.91%.

With `NC(=O)CCc1cccc(C2CCNCC2)n1`, the cytotoxicity at 70.5 h was 1.83%.
